The text below walks through data of publication PMC9501014, “Amaryllidaceae-Type Alkaloids from Pancratium maritimum: Apoptosis-Inducing Effect and Cell Cycle Arrest on Triple-Negative Breast Cancer Cells” (Molecules, 2022).

Assay [1] relates to MDA-MB-231 cells. As to the kind of experiment: Sulforhodamine B antiproliferative assay, MDA-MB-231. The settings on record: for IC50: sulforhodamine B assay, 48 h of treatment, read-out: IC50 MDA-MDB-231 (A); for SI E/A / SI D/A: selectivity index; for SI E/A: HFF-1 vs MDA-MB-231; for SI D/A: MCF12A vs MDA-MB-231. In kind it is cell-based, human. On the procedure:
(§1) The antiproliferative effect of the isolated compounds (1–11) was investigated by the sulforhodamine B assay against human triple-negative breast cancer cell lines (MDA-MB-468 and MDA-MB-231) and breast ductal carcinoma cells (MCF-7) and the non-tumorigenic fibroblast (HFF-1) and breast cell lines (MCF12A). The IC50 values were determined after 48 h of treatment (Table 1).
(§2) Human breast adenocarcinoma MDA-MB-231, MDA-MB-468, and MCF-7 cell lines and non-tumorigenic foreskin fibroblast (HFF-1) and breast (MCF12A) cell lines were purchased from American Type Culture Collection (ATCC, Rockville, MD, USA). All cancer cell lines, except MCF12A, were routinely cultured in RPMI-1640 medium with glutamine from Corning (VWR, Carnaxide, Portugal) supplemented with 10% fetal bovine serum (FBS) from Biowest (Labclinics, Barcelona, Spain). MCF12A cells were cultured in a 1:1 mixture of Dulbecco’s modified Eagle’s medium and Ham’s F12 medium, 20 ng/mL human epidermal growth factor, 100 ng/mL cholera toxin, 0.01 mg/mL bovine insulin, and 500 ng/mL hydrocortisone and supplemented with 10% FBS. All cells were maintained in a humidified incubator at 37 °C with 5% CO2. All cells were routinely tested for mycoplasma contamination using the MycoAlertTM PLUS detection kit (Lonza, Basel, Switzerland).
(§3) Human cell lines were seeded in 96-well plates at a density of 5.0 × 10^3 (MDA-MB-231, MCF-7, HFF-1, and MCF12A) and 7.5 × 10^3 (MDA-MB-468) cells/well and allowed to adhere for 24 h. Cells were treated with serial dilutions of compounds (ranging from 0.1 to 40 μM) for an additional 48 h. Effect on cell proliferation was measured by sulforhodamine B assay, as described in [33], and the half-maximal inhibitory concentration (IC50) was then determined for each cell line using the GraphPad Prism software version 7.0 (La Jolla, CA, USA).
In general terms: In SRB staining, fixed cells bind dye roughly in proportion to their protein.

Assay [2] relates to MDA-MB-231 cells. Also noted: method as in PMID 28756149. The settings on record: previous studies ref 30; cited from earlier work.
The subject of the next assay is MCF-7 cells. As to the kind of experiment: Sulforhodamine B antiproliferative assay, MCF-7. In kind it is cell-based, human. The settings on record: for IC50: sulforhodamine B assay, 48 h of treatment, read-out: IC50 MCF-7 (C); for SI E/C / SI D/C: selectivity index; for SI E/C: HFF-1 vs MCF-7; for SI D/C: MCF12A vs MCF-7. On the procedure:
as §1, §2, §3

A further assay has as its system MDA-MB-468 cells. As to the kind of experiment: Sulforhodamine B antiproliferative assay, MDA-MB-468. In kind it is cell-based, human. As to conditions: for IC50: sulforhodamine B assay, 48 h of treatment; for SI E/B / SI D/B: selectivity index; for SI E/B: HFF-1 vs MDA-MB-468; for SI D/B: MCF12A vs MDA-MB-468. Here is the method:
as §1, §2, §3

The subject of assay [3] is breast cancer cell lines (MDA-MB-231, MDA-MB-468, MCF-7). As to the kind of experiment: Sulforhodamine B assay, all breast cancer cell lines. In kind it is cell-based. The settings on record: Homo sapiens, read-out: IC50 values against all breast cancer cell lines. Here is the method:
Aiming to find Amaryllidaceae alkaloids against breast cancer, including the highly aggressive triple-negative breast cancer, the phytochemical study of Pancratium maritimum was carried out. Several Amaryllidaceae-type alkaloids, bearing scaffolds of the haemanthamine-, homolycorine-, lycorine-, galanthamine-, and tazettine-type were isolated (3–11), along with one alkamide (2) and a phenolic compound (1). The antiproliferative effect of compounds (1–11) was evaluated by the sulforhodamine B assay against triple-negative breast cancer cell lines MDA-MB-231 and MDA-MB-468, breast cancer cells MCF-7, and the non-malignant fibroblast (HFF-1) and breast (MCF12A) cell lines. […] The homolycorine-type alkaloid 7 was selected for further investigation in MDA-MB-231 cells. In the annexin-V assay, compound 7 increased cell death by apoptosis, which was substantiated, in western blot analyses, by the increased expression of the pro-apoptotic protein Bax, and the decreased expression of the anti-apoptotic protein Bcl-xL. Consistently, it further stimulated mitochondrial reactive oxygen species (ROS) generation. The antiproliferative effect of compound 7 was also associated with G2/M cell cycle arrest, which was supported by an increase in the p21 protein expression levels.
as §3

The next assay deals with MCF12A cells. As to the kind of experiment: Sulforhodamine B antiproliferative assay, non-tumorigenic breast MCF12A. In kind it is cell-based. As to conditions: Homo sapiens, MCF-12A, 48 h of treatment, read-out: IC50 MCF12A (D). Here is the method: as §1, §2, §3
The next assay concerns HFF-1 cells. As to the kind of experiment: Sulforhodamine B antiproliferative assay, non-tumorigenic fibroblast HFF-1. In kind it is cell-based. As to conditions: Homo sapiens, 48 h of treatment, read-out: IC50 HFF-1 (E). On the procedure:
as §1, §2, §3

Setting [4] is: range over the four alkaloids and MDA-MB-231, MDA-MB-468, MCF-7.

Structures are written as SMILES. Read-outs that look alike come from different tables or passages of the source.

Usually IC50 stands for the concentration that gives 50% inhibition. For `COc1cc(O)c(C(C)=O)c(OC)c1` [Compound 1, 4,6-dimethoxy-2-hydroxy acetophenone], in the assay on MDA-MB-231 cells [1] (Homo sapiens, MDA-MB-231, 48 h), the 50% inhibitory concentration (IC50) was more than 40 µM.

For `COc1cc(/C=C/C(=O)NCCc2ccc(O)cc2)ccc1O` [Compound 2, N-trans-feruloyl-tyramine], the 50% inhibitory concentration (IC50) in the assay on MDA-MB-231 cells [1] (Homo sapiens, MDA-MB-231, 48 h) was more than 40 µM.

As to `CO[C@@H]1C=C[C@@]23c4cc5c(cc4[C@@H](O)N(C[C@H]2O)[C@H]3C1)OCO5` [Compound 3, haemanthidine], in the assay on MDA-MB-231 cells [2], the “antiproliferative activity against MDA-MB-231 breast cancer cells” value was “antiproliferative activity”. The IC50 is 2.7 ± 0.1 µM in the assay on MCF-7 cells (Homo sapiens, MCF7, 48 h); 3.5 ± 0.3 µM in the assay on MDA-MB-468 cells (Homo sapiens, MDA-MB-468, 48 h); 0.73 to 16.3 µM in assay [3] (setting [4]); 4.88 µM with MDA-MB-231 cells [1] (Homo sapiens, MDA-MB-231, 48 h); 4.9 ± 1.16 µM in the assay with MDA-MB-231 cells [1]; 5 ± 0.5 µM in the assay on MCF12A cells. Also, the IC50 in the assay with HFF-1 cells was 2.7 ± 0.15 µM. Besides, the “SI E/C” value in the assay on MCF-7 cells was found to be 1.01. Also, in the assay with MCF-7 cells, the “SI D/C” value is recorded as 1.85. Also, the “SI E/B” value with MDA-MB-468 cells is recorded as 0.78. In addition, in the assay with MDA-MB-468 cells, the “SI D/B” value was 1.42. Also, the “SI E/A” value in the assay on MDA-MB-231 cells [1] came to 0.56. Also, the “SI D/A” value in the assay with MDA-MB-231 cells [1] turned out to be 1.02.

Take `CN1CCC2=C[C@H](O)C3OC(=O)c4cc5c(cc4C3C21)OCO5` (stereo partly drawn) [Compound 4, hippeastrine]: the IC50 in the assay on MDA-MB-231 cells [1] (Homo sapiens, MDA-MB-231, 48 h) was 24.7 ± 4.3 µM.

In the case of `O[C@H]1[C@H]2c3cc4c(cc3CN3CCC(=C[C@@H]1O)[C@H]23)OCO4` [Compound 5, lycorine], in the assay on MDA-MB-231 cells [2], the “antiproliferative activity against MDA-MB-231 breast cancer cells” value is recorded as “antiproliferative activity”. Further, the IC50 with MCF-7 cells (Homo sapiens, MCF7, 48 h) is 0.73 µM; in the assay on MCF-7 cells, 0.7 ± 0.01 µM; in the assay on MDA-MB-468 cells (Homo sapiens, MDA-MB-468, 48 h) it was 1.42 µM; with MDA-MB-468 cells, 1.4 ± 0.01 µM; in assay [3] (setting [4]), 0.73 to 16.3 µM; with MDA-MB-231 cells [1] (Homo sapiens, MDA-MB-231, 48 h), 0.92 µM. Further, the figures for the IC50 in the assay on MDA-MB-231 cells [1], with MCF12A cells and with HFF-1 cells were 0.9 ± 0.2 µM, 3 ± 0.3 µM and 1.3 ± 0.3 µM, respectively. In addition, the “SI E/C” value in the assay on MCF-7 cells was 1.78. In addition, the “SI E/B” value in the assay on MDA-MB-468 cells was determined as 0.91. Besides, the “SI D/B” value in the assay with MDA-MB-468 cells is on record as 2.11. For the same compound, the “SI E/A” value with MDA-MB-231 cells [1] worked out at 1.41. The “SI D/A” value in the assay with MDA-MB-231 cells [1] is 3.26.

`COc1ccc2c3c1O[C@H]1C[C@@H](O)C=C[C@@]31C(O)CN(C)C2` (stereo partly drawn) [Compound 6, 11α-hydroxygalanthamine]: in the assay with MDA-MB-231 cells [1] (Homo sapiens, MDA-MB-231, 48 h), the IC50 was more than 40 µM.

In the case of `COc1ccc2c3c1O[C@H]1C[C@H](O)C=C[C@@]31CCN(C)C2` [Compound 8, epi-galanthamine], in the assay on MDA-MB-231 cells [1] (Homo sapiens, MDA-MB-231, 48 h), the IC50 is more than 40 µM.

Consider `COc1cc2c(cc1O)C(=O)OC1CC=C3CCN(C)C3C21` (stereo not drawn) [Compound 9, 8-O-demethylhomolycorine], for which the IC50 with MDA-MB-231 cells [1] (Homo sapiens, MDA-MB-231, 48 h) is more than 40 µM.

As to `CO[C@@H]1C=C[C@@]23c4cc5c(cc4CO[C@]2(O)CN(C)[C@H]3C1)OCO5` [Compound 10, tazettine], in the assay on MDA-MB-231 cells [1] (Homo sapiens, MDA-MB-231, 48 h), the IC50 came to 39 ± 1.41 µM.

Consider `COC1C=CC23c4cc5c(cc4CN(CC2O)C3C1)OCO5` (stereo not drawn) [Compound 11, haemanthamine], for which, in the assay with MDA-MB-231 cells [2], the “antiproliferative activity against MDA-MB-231 breast cancer cells” value was “antiproliferative activity”. In addition, the half-inhibitory concentration (IC50) was 1.6 ± 0.1 µM with MCF-7 cells (Homo sapiens, MCF7); 3.8 ± 0.4 µM with MDA-MB-468 cells (Homo sapiens, MDA-MB-468); 0.73 to 16.3 µM in assay [3]; 3.95 µM in the assay with MDA-MB-231 cells [1] (Homo sapiens, MDA-MB-231, 48 h); 3.9 ± 0.97 µM in the assay with MDA-MB-231 cells [1]; 6.5 ± 1.1 µM in the assay with MCF12A cells. Moreover, the IC50 with HFF-1 cells is 2.7 ± 0.72 µM. Also, in the assay with MCF-7 cells, the “SI E/C” value is listed as 1.7. In addition, the “SI E/B” value with MDA-MB-468 cells was 0.71. In addition, the “SI D/B” value in the assay on MDA-MB-468 cells is listed as 1.71. Also, in the assay on MDA-MB-231 cells [1], the “SI E/A” value came out at 0.68. Further, in the assay on MDA-MB-231 cells [1], the “SI D/A” value is 1.64.

As for `COc1cc([C@@H]2c3cc4c(cc3[C@@H](O[C@@H]3O[C@@H]5CO[C@@H](C)O[C@H]5[C@H](O)[C@H]3O)[C@H]3COC(=O)[C@H]23)OCO4)cc(OC)c1O` [Etoposide, reference compound], the IC50 came to 3.1 ± 0.05 µM with MCF-7 cells (Homo sapiens, MCF7, 48 h); 1.7 ± 0.05 µM with MDA-MB-468 cells (Homo sapiens, MDA-MB-468, 48 h); 2.9 ± 0.1 µM with MDA-MB-231 cells [1] (Homo sapiens, MDA-MB-231, 48 h); 2.3 ± 0.13 µM in the assay with MCF12A cells; 3.8 ± 0.09 µM in the assay with HFF-1 cells. The “SI E/C” value in the assay with MCF-7 cells amounted to 1.23. Moreover, the “SI D/C” value in the assay on MCF-7 cells was 0.74. For the same compound, in the assay with MDA-MB-468 cells, the “SI E/B” value amounted to 2.23. In addition, the “SI D/B” value with MDA-MB-468 cells amounted to 1.35. Also, in the assay with MDA-MB-231 cells [1], the “SI E/A” value amounted to 1.31. For the same compound, in the assay on MDA-MB-231 cells [1], the “SI D/A” value was determined as 0.79.
